Here are results for 1 compound from US20100267561A1, “HERBICIDAL PYRIDAZINONE DERIVATIVES” (priority 2007, published 2010).

The subject of test [1] is wild oat (AVEFA, Avena fatua). Nature of the test: Test G mixtures of Compound 26 with crop safeners, postemergence plant response. Type of test: in vivo. As to conditions: applied alone. The protocol: (§1) This test evaluated the effect of mixtures of Compound 26 with commercial crop safeners cloquintocet-mexyl, mefenpyr-diethyl, and fenchlorazole-ethyl on three plant species. Seeds of winter wheat (TRZAW, Triticum aestivum), winter barley (HORVX, Hordeum vulgare), and wild oat (AVEFA, Avena fatua) (a weed) were planted into a silt loam soil. Plants from these seeds were treated postemergence using test chemicals formulated in a non-phytotoxic solvent mixture that included a surfactant. Plants ranged in height from 6 to 10 cm (2- to 3-leaf stage).
(§2) Plants were grown in a greenhouse using supplemental lighting to maintain a photoperiod of about 14 hours; daytime and nighttime temperatures were about 22-26° C. and 15-19° C., respectively. Balanced fertilizer was applied through the watering system. Treatments consisted of Compound 26 and the above mentioned safeners alone and in combination using a spray volume of 281 L/ha. Each treatment was replicated four times. Treated plants and controls were maintained in a greenhouse for 15 days, after which time all treated plants were compared to controls and visually evaluated. Plant response ratings were calculated as the means of the four replicates based on a scale of 0 to 100 where 0 is no effect and 100 is complete control and are summarized in Tables G1 to G3. Because the safeners alone caused no injury at the rates tested, the expected effect of a mixture of Compound 26 with a safener is the same as the observed effect of Compound 26 alone.
(§3) The highest application rate of each safener was tested alone to confirm the absence of herbicidal activity on the test species when appled postemergence at 125 g ai/ha. Therefore, an extrapolated result of zero for each safener alone at 16, 31, or 62 g ai/ha was used to calculate the mixture response of Compound 26 and these safener application rates.

Test [2] relates to winter barley (HORVX, Hordeum vulgare). Described as above. The class given is in vivo. As to conditions: applied alone. The protocol:
as §1, §2, §3

Molecules are shown by their SMILES.

With `CCc1c(C)c(-c2ccc(Cl)cc2)nn1-c1c(O)cnn(C)c1=O` [Compound 26, 4-[3-(4-chlorophenyl)-5-ethyl-4-methyl-1H-pyrazol-1-yl]-5-hydroxy-2-methyl-3(2H)-pyridazinone], the “AVEFA Obsd. (observed effect) plant response rating, scale 0 to 100” value in test [1] (62 g a.i./ha) amounted to 89; in test [1] (125 g a.i./ha) it was 97; in test [1] (250 g a.i./ha), 99. The “HORVX Obsd. (observed effect) plant response rating, scale 0 to 100” value in test [2] (62 g a.i./ha) is given as 19; in test [2] (125 g a.i./ha), 34; in test [2] (250 g a.i./ha), 45.
